Reference: ChEMBL document CHEMBL2057072, “Design, synthesis, and pharmacological evaluation of novel tetrahydroprotoberberine derivatives: selective inhibitors of dopamine D₁ receptor” (Bioorg Med Chem, 2012)

Columns and labels:
[1] = biological target: T1, D(1A) dopamine receptor (Homo sapiens, UniProt P21728); experiment: Displacement of [3H]SCH23390 from human dopamine D1 receptor expressed in HEK293 cells; format: cell-based
[2] = biological target: T2, 5-hydroxytryptamine receptor 1A (Homo sapiens) (UniProt P08908); experiment: Displacement of [3H]-8-OH-DPAT from human 5HT1A receptor expressed in HEK293 cells at 10 uM; format: cell-based
T2 sequence (whole entry): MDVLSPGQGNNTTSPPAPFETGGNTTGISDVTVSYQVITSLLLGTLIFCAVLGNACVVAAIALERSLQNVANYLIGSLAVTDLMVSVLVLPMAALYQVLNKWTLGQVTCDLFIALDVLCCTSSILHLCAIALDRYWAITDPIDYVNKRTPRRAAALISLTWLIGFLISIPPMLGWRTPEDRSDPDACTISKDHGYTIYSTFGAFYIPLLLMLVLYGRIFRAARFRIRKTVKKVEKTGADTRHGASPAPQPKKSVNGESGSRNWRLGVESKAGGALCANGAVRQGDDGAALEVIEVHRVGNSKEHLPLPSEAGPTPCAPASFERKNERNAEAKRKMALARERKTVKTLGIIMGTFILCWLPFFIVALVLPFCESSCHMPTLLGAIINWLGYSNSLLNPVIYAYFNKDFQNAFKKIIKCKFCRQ

[3] = biological target: 5-hydroxytryptamine receptor 2A (Homo sapiens) (UniProt P28223); experiment: Displacement of [3H]Ketanserin from human 5HT2A receptor expressed in HEK293 cells at 10 uM; format: cell-based
Sequence of 5-hydroxytryptamine receptor 2A (Homo sapiens) (P28223 whole entry): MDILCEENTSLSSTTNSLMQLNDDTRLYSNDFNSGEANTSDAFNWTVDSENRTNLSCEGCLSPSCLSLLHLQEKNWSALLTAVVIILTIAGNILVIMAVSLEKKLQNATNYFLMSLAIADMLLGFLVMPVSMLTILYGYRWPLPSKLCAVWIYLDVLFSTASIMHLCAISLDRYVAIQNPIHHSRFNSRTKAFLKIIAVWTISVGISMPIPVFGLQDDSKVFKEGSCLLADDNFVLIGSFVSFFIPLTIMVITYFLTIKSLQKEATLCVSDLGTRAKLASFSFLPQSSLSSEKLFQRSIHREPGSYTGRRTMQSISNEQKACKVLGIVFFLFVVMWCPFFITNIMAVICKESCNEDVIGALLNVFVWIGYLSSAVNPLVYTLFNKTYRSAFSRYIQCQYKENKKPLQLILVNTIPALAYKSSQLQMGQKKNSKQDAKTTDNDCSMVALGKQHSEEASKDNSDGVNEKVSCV

[4] = biological target: T3, D(2) dopamine receptor (Homo sapiens, UniProt P14416); experiment: Displacement of [3H]Spiprone from human dopamine D2 receptor expressed in HEK293 cells at 10 uM; format: cell-based
T3 sequence (P14416 whole entry): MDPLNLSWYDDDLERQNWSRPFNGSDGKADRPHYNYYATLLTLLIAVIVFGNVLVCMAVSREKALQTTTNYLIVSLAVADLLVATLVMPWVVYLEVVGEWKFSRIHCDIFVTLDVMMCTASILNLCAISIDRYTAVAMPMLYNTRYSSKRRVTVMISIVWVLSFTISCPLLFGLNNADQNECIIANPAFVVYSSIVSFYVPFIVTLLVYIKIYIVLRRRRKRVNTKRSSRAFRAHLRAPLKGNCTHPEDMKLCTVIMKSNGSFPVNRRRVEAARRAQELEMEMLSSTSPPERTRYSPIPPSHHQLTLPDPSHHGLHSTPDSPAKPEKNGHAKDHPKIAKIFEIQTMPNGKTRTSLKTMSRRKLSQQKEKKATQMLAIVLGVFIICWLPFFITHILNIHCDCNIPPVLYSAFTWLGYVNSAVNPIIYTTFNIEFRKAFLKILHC

[5] = biological target: T1, D(1A) dopamine receptor; experiment: Displacement of [3H]SCH23390 from human dopamine D1 receptor expressed in HEK293 cells at 10 uM; format: cell-based
[6] = biological target: T3, D(2) dopamine receptor; experiment: Displacement of [3H]Spiprone from human dopamine D2 receptor expressed in HEK293 cells; format: cell-based
[7] = biological target: D(1A) dopamine receptor (Rattus norvegicus, UniProt P18901); experiment: Agonist activity at D1 receptor in rat striatum assessed as synaptosomal adenylate cyclase activity; format: functional, tissue-based
Sequence of D(1A) dopamine receptor (Rattus norvegicus, UniProt P18901) (P18901 whole entry): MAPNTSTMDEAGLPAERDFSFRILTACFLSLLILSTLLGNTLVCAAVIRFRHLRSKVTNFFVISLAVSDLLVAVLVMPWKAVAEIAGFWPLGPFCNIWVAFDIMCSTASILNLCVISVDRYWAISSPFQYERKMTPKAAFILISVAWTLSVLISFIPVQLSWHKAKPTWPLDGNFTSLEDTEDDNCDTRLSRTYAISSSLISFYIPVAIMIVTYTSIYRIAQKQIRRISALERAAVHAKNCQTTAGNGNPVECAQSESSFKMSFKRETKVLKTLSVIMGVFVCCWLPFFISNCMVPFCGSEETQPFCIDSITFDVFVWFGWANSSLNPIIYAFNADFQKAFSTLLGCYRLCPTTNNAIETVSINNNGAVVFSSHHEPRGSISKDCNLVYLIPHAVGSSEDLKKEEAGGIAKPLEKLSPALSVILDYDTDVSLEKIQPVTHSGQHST

[8] = biological target: T1, D(1A) dopamine receptor; experiment: Antagonist activity at dopamine D1 receptor assessed as inhibition of [35S]GTPgammaS binding in cell-based assay; format: functional
[9] = biological target: T1, D(1A) dopamine receptor; experiment: Antagonist activity at dopamine D1 receptor assessed as inhibition of [35S]GTPgammaS binding in cell-based assay relative to control; format: functional
[10] = biological target: T1, D(1A) dopamine receptor; experiment: Agonist activity at dopamine D1 receptor assessed as [35S]GTPgammaS binding in cell-based assay relative to control; format: functional
[11] = biological target: T4, 5-hydroxytryptamine receptor 1A (Homo sapiens, UniProt P08908); experiment: Displacement of [3H]-8-OH-DPAT from human 5HT1A receptor expressed in HEK293 cells; format: cell-based
T4 sequence (P08908 whole entry): T2 sequence (whole entry)

T1 sequence (P21728 whole entry): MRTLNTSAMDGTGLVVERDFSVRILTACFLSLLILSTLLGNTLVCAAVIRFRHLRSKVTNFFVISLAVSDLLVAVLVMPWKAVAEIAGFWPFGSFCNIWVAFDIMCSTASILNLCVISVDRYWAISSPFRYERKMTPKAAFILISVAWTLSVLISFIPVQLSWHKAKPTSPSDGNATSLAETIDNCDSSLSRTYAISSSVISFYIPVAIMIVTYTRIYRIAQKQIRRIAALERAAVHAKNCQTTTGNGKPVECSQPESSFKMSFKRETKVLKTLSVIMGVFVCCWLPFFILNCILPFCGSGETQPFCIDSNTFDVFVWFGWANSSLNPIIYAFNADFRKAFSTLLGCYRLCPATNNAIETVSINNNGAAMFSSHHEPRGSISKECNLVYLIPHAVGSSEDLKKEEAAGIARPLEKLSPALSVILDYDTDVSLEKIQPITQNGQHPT

Row | SMILES | IC50 [1] [nM] | Ki [1] [nM] | inhibition [2] [%] | inhibition [3] [%] | inhibition [4] [%] | inhibition [5] [%] | IC50 [6] [nM] | Ki [6] [nM] | EC50 [7] [nM] | IC50 [8] [nM] | Imax [9] [%] | Emax [10] [%] | Ki [11] [nM]
1 | COc1ccc(OC)c2c1C[C@H]1c3c(OC)cc(OC)c(CO)c3CCN1C2 | – | – | 33.1 | 25.3 | – | 48.8 | – | – | – | – | – | – | –
2 | COc1cc2c(cc1O)[C@@H]1Cc3cc(C)cc(C)c3CN1CC2 | 56.4 | 28.9 | 74.5 | 27.1 | – | – | 456 | 161 | – | – | – | – | –
3 | COc1cc2c(c(OC)c1OC)[C@@H]1Cc3cc4c(cc3CN1CC2)OCO4 | – | – | 70.3 | 72.7 | 70.7 | 43.4 | – | – | – | – | – | – | –
4 | COc1cc(OC)c2c(c1CO)C[C@H]1c3c(cc(OC)c(OC)c3OC)CCN1C2 | – | – | 67.4 | 59.7 | 47.2 | 7.37 | – | – | – | – | – | – | –
5 | Oc1cc2c(cc1O)C(c1ccccc1)CNCC2 (stereo not given) | – | – | – | – | – | – | – | – | – | – | – | 100 | –
6 | CN1CCc2cc(Cl)c(O)cc2[C@@H](c2ccccc2)C1 | – | – | – | – | – | – | – | – | – | – | 80 | – | –
7 | COc1cc(OC)c2c(c1CO)C[C@H]1c3cc4c(cc3CCN1C2)OCO4 | 324 | 182 | – | 56.2 | 41.8 | – | – | – | – | – | – | – | 600
8 | COc1cc2c(c(OC)c1)CN1CCc3cc(OC)c(OCc4ccccc4)c(OC)c3[C@@H]1C2 | – | – | 43.7 | 69.1 | 54.2 | 59.3 | – | – | – | – | – | – | –
9 | COc1cc2c(c(OC)c1)CN1CCc3cc(OC)c(O)cc3[C@@H]1C2 | 4.86 | – | 56.9 | 32.4 | 83.3 | – | – | – | – | 1380 | 94.3 | – | –
10 | COc1cc2c(c(OC)c1)CN1CCc3cc(OC)c(OC)c(OC)c3[C@@H]1C2 | 45.4 | 23.8 | 66.9 | 48.8 | 51.7 | – | – | – | – | 11800 | 82.5 | – | –
11 | COc1cc(OC)c2c(c1CO)CCN1Cc3cc4c(cc3C[C@@H]21)OCO4 | – | – | – | 16.9 | – | 17.4 | – | – | – | – | – | – | –

Next, values leading:

Row | IC50 [1] [nM] | Ki [1] [nM] | inhibition [2] [%] | inhibition [3] [%] | inhibition [4] [%] | inhibition [5] [%] | IC50 [6] [nM] | Ki [6] [nM] | EC50 [7] [nM] | IC50 [8] [nM] | Imax [9] [%] | Emax [10] [%] | Ki [11] [nM] | SMILES
12 | 2920 | 1440 | 28.4 | 19.9 | 77.4 | – | – | – | – | – | – | – | – | COc1cc2c(cc1OC)C1Cc3cc(C)cc(C)c3CN1CC2 (racemic)
13 | – | – | 37.3 | 13.5 | 36 | 86 | – | – | – | – | – | – | – | COc1ccc2c(c1)C[C@H]1c3cc(OCc4ccccc4)c(OC)cc3CCN1C2
14 | 684 | 338 | 54.8 | 36.5 | – | – | 1160 | 224 | – | – | – | – | – | COc1cc2c(cc1OC)[C@@H]1Cc3cc(C)cc(C)c3CN1CC2
15 | 12.3 | 6.23 | 89.3 | 45.6 | – | – | 105 | 56.2 | 41100 | – | – | – | – | COc1cc2c(cc1O)[C@@H]1Cc3ccc(O)c(OC)c3CN1CC2 [STEPHOLIDINE]
16 | 189 | 106 | 66.9 | 17.2 | 3.48 | – | – | – | – | – | – | – | – | COc1cc2c(c(OC)c1)CN1CCc3cc(OC)c(OC)cc3[C@@H]1C2
17 | 14.3 | 7.97 | 61.7 | 25 | 81.9 | – | – | – | – | 23300 | 94.2 | – | – | COc1cc2c(c(OC)c1)CN1CCc3cc(OC)cc(OC)c3[C@@H]1C2
18 | – | – | 5.48 | 20.8 | 22.7 | 83.2 | – | – | – | – | – | – | – | COc1ccc2c(c1)C[C@H]1c3cc4c(cc3CCN1C2)OCO4
19 | – | – | 1.34 | 21.4 | – | 56 | – | – | – | – | – | – | – | COc1ccc2c(c1)C[C@H]1c3c(OC)cc(OC)c(CO)c3CCN1C2
20 | 114 | 64.1 | – | 24.1 | 39.5 | – | – | – | – | – | – | – | 730 | COc1cc2c(cc1OC)[C@@H]1Cc3c(CO)c(OC)cc(OC)c3CN1CC2
21 | – | – | 57.4 | 33.5 | 10.2 | 81.9 | – | – | – | – | – | – | – | COc1ccc2c(c1)C[C@H]1c3cc(OC)c(OC)cc3CCN1C2
22 | 68.9 | 35.8 | 65.6 | 68.7 | – | – | 873 | 347 | – | – | – | – | – | COc1ccc2c(c1)C[C@H]1c3cc(O)c(OC)cc3CCN1C2
23 | 142 | 74.5 | 57.6 | 31.3 | 1.02 | – | – | – | – | – | – | – | – | COc1cc2c(c(OC)c1)CN1CCc3cc4c(cc3[C@@H]1C2)OCO4
24 | 98.1 | 52.3 | 44.9 | 51.6 | 58.8 | – | – | – | – | – | – | – | – | COc1cc2c(c(OC)c1)CN1CCc3cc(OC)c(O)c(OC)c3[C@@H]1C2
25 | 30.7 | 17.3 | 80.9 | 18.4 | – | – | 514 | 147 | – | – | – | – | – | COc1cc2c(cc1O)[C@@H]1Cc3c(CO)c(OC)cc(OC)c3CN1CC2
